Test results reported in US20070078111A1, “LPA2 receptor agonist inhibitors of CFTR” (priority 2005, published 2007).
pEC50: −log10 of the molar value.

Experiments:
[1] = target: LPA2 receptor (Homo sapiens, UniProt Q9HBW0); assay: LPA2 receptor agonist activity (EC50, Emax); format: cell-based; conditions: for LPA2 (Emax): value in parentheses
[2] = tested on: CTX-induced Cl- secretion; format: in vivo, C57BL/6 mice; conditions: 6 hours
[3] = tested on: CFTR; assay: Iodide efflux measurements in Calu-3 cells; format: cell-based, human; conditions: for CFTR activity, peak iodide efflux in response to adenosine: adenosine as CFTR agonist, FIG. 2C
[4] = tested on: CFTR Cl- channel; assay: Short-circuit current (Isc) in isolated mouse intestine; conditions: isolated mouse intestine pretreated with LPA (20:4); dose-dependent; FIG. 2G, 2H
Experimental: (§1) Calu-3 and HT29-CL19A polarized cell monolayers were grown to confluency on Costar Transwell permeable supports (filter area is 0.33 cm^2). Filters were mounted in an Ussing chamber, and short-circuit currents (Isc) mediated through CFTR Cl^− channel were carried out as described previously (31). Epithelia were bathed in Ringer's solution (mM) (serosal/basolateral: 140 NaCl^−, 5 KCl, 0.36 K2HPO4, 0.44 KH2PO4, 1.3 CaCl2, 0.5 MgCk2, 4.2 NaHCO3, 10 Hepes, 10 glucose, pH 7.2, [Cl^−]=149), and low Cl-Ringer's solution (mM) (luminal/apical: 133.3 Na-gluconate, 5 K-gluconate, 2.5 NaCl, 0.36 K2HPO4, 0.44 KH2PO4, 5.7 CaCl2, 0.5 MgCl2, 4.2 NaHCO3, 10 Hepes, 10 mannitol, pH 7.2, [Cl^−]=14.8) at 37° C., gassed with 95% O2 and 5%) […] CO2. LPA (20:4) was added into both the luminal (apical) side and serosal (basolateral) side of the cell monolayers for 30 min before adenosine (ADO) was added into the luminal/apical side. […]

[5] = tested on: CFTR Cl- channel; assay: Short-circuit current (Isc) in polarized Calu-3 monolayers; format: cell-based, human; conditions: Calu-3 cells; LPA pretreatment 30 min; FIG. 2F
Experimental: as §1

[6] = tested on: CTX-induced intestinal fluid secretion; format: in vivo, CD1 mice
[7] = tested on: CFTR Cl- channel; assay: Short-circuit current (Isc) in polarized HT29-CL19A monolayers; format: cell-based, human; conditions: HT29 cells; LPA (20:4) pretreatment 30 min; FIG. 2E
Experimental: as §1

Chain of LPA2 receptor (Q9HBW0 whole entry): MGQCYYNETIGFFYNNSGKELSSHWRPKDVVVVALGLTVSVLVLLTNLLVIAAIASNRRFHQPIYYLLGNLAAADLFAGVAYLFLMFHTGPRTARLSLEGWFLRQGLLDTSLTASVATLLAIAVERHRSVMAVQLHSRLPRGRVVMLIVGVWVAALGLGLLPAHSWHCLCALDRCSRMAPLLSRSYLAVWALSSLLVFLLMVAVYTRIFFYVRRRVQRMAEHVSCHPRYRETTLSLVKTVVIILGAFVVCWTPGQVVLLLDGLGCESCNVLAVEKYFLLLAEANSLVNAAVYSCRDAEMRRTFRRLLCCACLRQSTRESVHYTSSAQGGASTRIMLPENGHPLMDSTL

Molecule: CCCCCCCC=CCCCCCCCC[C@@H]1OC[C@H](COP(=O)([O-])O)O1.[K+] [(2R,4R) Mono potassium phosphoric acid O-(2-heptadec-9-enyl-(1,3)-dioxolan-4-ylmethyl) ester]
- pEC50 ([1]; Table 2): 5.77
- LPA2 (Emax) ([1]; Table 2): 42

Molecule: CCCCCCCC=CCCCCCCCC[C@@H]1OC[C@H](COP([O-])(O)=S)O1.[K+] [(2R,4R) Mono potassium thiophosphoric acid O-(2-heptadec-9-enyl-(1,3)-dioxolan-4-ylmethyl) ester]
- pEC50 ([1]; Table 2): 5.96
- LPA2 (Emax) ([1]; Table 2): 85

Molecule: CCCCCCCC=CCCCCCCCC[C@@H]1OC[C@@H](COP([O-])(O)=S)O1.[K+] [(2R,4S) Mono potassium thiophosphoric acid O-(2-heptadec-9-enyl-(1,3)-dioxolan-4-ylmethyl) ester]
- pEC50 ([1]; Table 2): 5.81
- LPA2 (Emax) ([1]; Table 2): 72

Molecule: CCCCCCCC=CCCCCCCCC[C@H]1OC[C@H](COP([O-])(O)=S)O1.[K+] [(2S,4R) Mono potassium thiophosphoric acid O-(2-heptadec-9-enyl-(1,3)-dioxolan-4-ylmethyl) ester]
- pEC50 ([1]; Table 2): 5.89
- LPA2 (Emax) ([1]; Table 2): 77

Molecule: CCCCCCCC=CCCCCCCCC[C@H]1OC[C@@H](COP([O-])(O)=S)O1.[K+] [(2S,4S) Mono potassium thiophosphoric acid O-(2-heptadec-9-enyl-(1,3)-dioxolan-4-ylmethyl) ester]
- pEC50 ([1]; Table 2): 5.88
- LPA2 (Emax) ([1]; Table 2): 87

Molecule: CCCCCCCC(=O)OC[C@H](COP(O)(O)=S)OC(=O)CCCCCCC [(R)-Octanoic acid 1-octanoyloxymethyl-2-thiophosphonooxy-ethyl ester]
- LPA2 (Emax) ([1]; Table 1): 58

Molecule: CCCCCCCCOC[C@H](COP(O)(O)=S)OCCCCCCCC [(R)-Thiophosphoric acid O-(2,3-bis-octyloxy-propyl) ester]
- pEC50 ([1]; Table 1): 5.24
- LPA2 (Emax) ([1]; Table 1): 27

Molecule: CCCCCCCC(=O)OC[C@@H](COP(O)(O)=S)OC(=O)CCCCCCC [(S)-Octanoic acid 1-octanoyloxymethyl-2-thiophosphonooxy-ethyl ester]
- LPA2 (Emax) ([1]; Table 1): 17

Molecule: CCCCCCCC/C=C\CCCCCCCCOP(O)(O)=S [FAP 18:1d9, fatty alcohol thiophosphate 18:1d9]
- intestinal fluid accumulation [2]: significantly reduced
- ratio of intestinal weight before to after luminal fluid removal [2]: statistically significant reduction

Molecule: CCCCCCCC/C=C\CCCCCCCC(=O)OC[C@@H](O)COP(=O)(O)O [LPA 18:1]
- rank order of inhibition of peak iodide efflux in response to adenosine ([3]; Calu-3 cells, […], FIG. 2D): LPA 20:4>LPA 18:2>LPA 18:1

Molecule: CC=CCC=CCC=CCCCCCCCCC1OCC(COP(=O)(O)O)O1.[K] (stereo not shown) [Mono potassium phosphoric acid O-(2-heptadec-9,12,15-trienyl-(1,3)-dioxolan-4-ylmethyl) ester]
- pEC50 ([1]; Table 2): 5.77
- LPA2 (Emax) ([1]; Table 2): 51

Molecule: CCCCCCCC=CCCCCCCCCC1OCC(COP(O)(O)=S)O1.[K] (stereo not shown) [Mono potassium thiophosphoric acid O-(2-heptadec-9-enyl-(1,3)-dioxolan-4-ylmethyl) ester]
- pEC50 ([1]; Table 2): 5.93
- LPA2 (Emax) ([1]; Table 2): 87

Molecule: C=CCCCCCCCCOP(=O)(O)O [Phosphoric acid monodec-9-enyl ester]
- pEC50 ([1]; Table 1): 5.42
- LPA2 (Emax) ([1]; Table 1): 100

Molecule: CCCCCCCCCCOP(=O)(O)O [Phosphoric acid monodecyl]
- pEC50 ([1]; Table 1): 5.74
- LPA2 (Emax) ([1]; Table 1): 82

Molecule: CC/C=C\CCCCCCCCOP(=O)(O)O [Phosphoric acid monododec-9-enyl ester]
- pEC50 ([1]; Table 1): 6.14
- LPA2 (Emax) ([1]; Table 1): 78

Molecule: CCCCCCCCCCCCOP(=O)(O)O [Phosphoric acid monododecyl ester]
- pEC50 ([1]; Table 1): 5.51
- LPA2 (Emax) ([1]; Table 1): 50

Molecule: CCCC/C=C\CCCCCCCCOP(=O)(O)O [Phosphoric acid monotetradec-9-enyl ester]
- pEC50 ([1]; Table 1): 6.40
- LPA2 (Emax) ([1]; Table 1): 58

Molecule: CC/C=C\CCCCCCCCCCOP(=O)(O)O [Phosphoric acid monotetradec-11-enyl ester]
- pEC50 ([1]; Table 1): 5.39
- LPA2 (Emax) ([1]; Table 1): 75

Molecule: CCCCCCCCCCOP(O)(O)=S [Thiophosphoric acid O- decyl ester]
- pEC50 ([1]; Table 1): 5.34
- LPA2 (Emax) ([1]; Table 1): 100

Molecule: CCCCCCCCCCCCOP(O)(O)=S [Thiophosphoric acid O- dodecyl ester]
- binding to the LPA2 receptor and thereby inhibiting CFTR activation [1]: particularly effective
- pEC50 ([1]; Table 1): 6.00
- LPA2 (Emax) ([1]; Table 1): 100

Molecule: CCCCCCCCCCCCCCOP(O)(O)=S [Thiophosphoric acid O- tetradecyl ester]
- binding to the LPA2 receptor and thereby inhibiting CFTR activation [1]: particularly effective
- pEC50 ([1]; Table 1): 5.60
- LPA2 (Emax) ([1]; Table 1): 100

Molecule: CCCC/C=C\CCCCCCCCOP(O)(O)=S [Thiophosphoric acid O-tetradec-9-enyl ester]
- binding to the LPA2 receptor and thereby inhibiting CFTR activation [1]: particularly effective
- pEC50 ([1]; Table 1): 6.32
- LPA2 (Emax) ([1]; Table 1): 150

Molecule: CC/C=C\CCCCCCCCOP(O)(O)=S [drawing 10, Thiophosphoric acid O-dodec-9-enyl ester]
- binding to the LPA2 receptor and thereby inhibiting CFTR activation [1]: particularly effective
- pEC50 ([1]; Table 1): 6.17
- LPA2 (Emax) ([1]; Table 1): 100

Molecule: CCCCCCCC/C=C\CCCCCCCCOP(O)(O)=S [drawing 12, Thiophosphoric acid O-octadec-9-enyl ester]
- binding to the LPA2 receptor and thereby inhibiting CFTR activation [1]: particularly effective
- pEC50 ([1]; Table 1): 6.61
- LPA2 (Emax) ([1]; Table 1): 175

Molecule: lysophosphatidic acid [LPA]
- Isc in response to cpt-cAMP stimulation [4]: inhibited
- CFTR-dependent Cl- currents (Isc) in response to adenosine [5]: significantly inhibited
- ratio of intestinal weight before to after luminal fluid removal [2]: statistically significant reduction
- effect of LPA alone on CFTR channel function (iodide efflux) ([3]; Calu-3 cells, LPA alone, no cpt-cAMP): had no effect
- CFTR activity, peak iodide efflux in response to adenosine ([3]; Calu-3 cells): dose-dependent inhibition
- response of Calu-3 cells to cpt-cAMP stimulation (iodide efflux) ([3]; LPA pretreatment, FIG. 2A: LPA 18:1 (20 μM), cpt-cAMP 200 μM): reduced the response
- CTX-elicited CFTR-dependent intestinal fluid secretion (ileal loop weight) ([6]; 6 h): significantly reducing fluid accumulation to the level of PBS control loops
- fluid accumulation in toxin-treated intestinal loops ([6]; mouse, in vivo): efficiently reduced the fluid accumulation
- CFTR-dependent Cl- currents (Isc) in response to adenosine [7]: significantly inhibited

Molecule: pertussis toxin [PTX]
- reversal of LPA-dependent inhibition of CFTR function (iodide efflux) ([3]; Calu-3 cells pretreated with PTX 100 or 200 ng/ml for 24 h): reversed LPA-dependent inhibition of CFTR function in a dose-dependent fashion

Molecule: phosphatidic acid [PA]
- CFTR activity, peak iodide efflux in response to adenosine ([3]; Calu-3 cells): did not show any significant effect
